Starred links: 1 amine or outer side, 2 acyl side, 3 side chain; linkers in the order of their positions; H or OH if unused. Non-standard residues stand in square brackets, D forms with d. Residues, ends and D or L forms follow the SMILES beside them. Groups on a side chain read outwards from the residue. *: point of attachment. X1 = CCCCCCCCCCCCCCCC(=O)N[C@@H](CCC(=O)N[C@@H](CCC(=O)N[C@@H](CCC(=O)NCCCOCCOCCOCCCNC(=O)CCC(=O)NCCCOCCOCCOCCCNC(=O)CCC(=O)NCCCOCCOCCOCCCN*)C(=O)O)C(=O)O)C(=O)O; Phe(4-F) = N[C@@H](Cc1ccc(F)cc1)C(=O)O; Suc = O=C(CCC(=O)[*:2])[*:1]; Aib = CC(C)(N)C(=O)O
Biological target: T1, RXFP1 (Homo sapiens, UniProt Q9HBX9)
T1 construct: OVCAR5 cells expressing endogenous RXFP1; endogenous in cells; host or cells: OVCAR5
T1 sequence (Q9HBX9 1-757): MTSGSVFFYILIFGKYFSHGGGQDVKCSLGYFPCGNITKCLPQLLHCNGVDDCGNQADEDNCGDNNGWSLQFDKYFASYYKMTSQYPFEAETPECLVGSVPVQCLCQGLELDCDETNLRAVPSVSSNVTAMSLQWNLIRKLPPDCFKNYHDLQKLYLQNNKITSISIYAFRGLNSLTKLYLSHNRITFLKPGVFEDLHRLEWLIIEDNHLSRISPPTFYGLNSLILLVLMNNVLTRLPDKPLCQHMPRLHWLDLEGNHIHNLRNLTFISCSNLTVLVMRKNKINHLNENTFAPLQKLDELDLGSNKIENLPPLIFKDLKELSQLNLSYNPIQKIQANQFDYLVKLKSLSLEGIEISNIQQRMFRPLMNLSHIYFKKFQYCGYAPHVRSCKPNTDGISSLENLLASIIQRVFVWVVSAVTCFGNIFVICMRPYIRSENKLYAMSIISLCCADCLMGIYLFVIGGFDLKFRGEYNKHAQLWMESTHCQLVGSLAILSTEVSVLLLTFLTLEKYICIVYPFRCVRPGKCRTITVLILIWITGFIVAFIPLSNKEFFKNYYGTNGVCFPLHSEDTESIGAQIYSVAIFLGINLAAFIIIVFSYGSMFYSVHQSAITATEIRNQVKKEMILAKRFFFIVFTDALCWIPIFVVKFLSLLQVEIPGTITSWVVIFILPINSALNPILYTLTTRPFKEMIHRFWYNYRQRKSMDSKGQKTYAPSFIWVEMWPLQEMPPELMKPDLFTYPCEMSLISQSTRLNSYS
Experiment: OVCAR5 cAMP assay (HTRF)
Format: cell-based
Details: for EC50: OVCAR 5 cells expressing endogenous RXFP1, cAMP readout; for Emax: OVCAR 5 cells, maximal cAMP relative to H2-relaxin
Description: OVCAR5 cells expressing endogenous RXFP1 were used to test RXP1 agonist properties of peptides of the invention, and in particular of the peptides of sequence SEQ ID NO: 1-97.
Since RXFP1 is a Gs coupled GPCR, cAMP was used as readout of RXFP1 activation.
Isobutyl Methyl Xanthine (IBMX) was used to inhibit phosphodiesterase activity facilitating cAMP measurements. HTRF (Homogenous Time Resolved Fluorescence) technology was used to detect cAMP due to its great sensitivity.
In summary, OVCAR5 were grown in regular medium (RPMI) containing 10% fetal calf serum (FCS) and 1% antibiotics (penicillin/streptomycin).
Before the experiments, cells were detached with accutase and incubated for 40 minutes at 37° C. with 1 mM (3-isobutyl-1-methylxanthine) IBMX.
Cells were then distributed in 384 black well plates containing increasing concentrations of the different peptides in a fix volume of medium (without FCS).
After an incubation of 30 min at 37° C. in an humid incubator in 5% CO2, the reaction was stopped by adding a fixed volume of a solution containing a lysis buffer and cAMP-D2 (cAMP labeled with the dye d2) and the anti cAMP antibody linked to Europium and used for cAMP detection.
Readout of the experiment were performed on a fluorimeter allowing HTRF measurement. Activation curves were generated by plotting the intracellular value of cAMP versus log 10 of the compound concentration.
The 50% activation concentration (EC50) was calculated by nonlinear regression using the sigmoidal dose-response (variable slope) equation with Prism 5 software.
Emax % was determined as the maximal intracellular value of cAMP for test compound (upper limit of cAMP vs concentration curve) divided by the maximal intracellular value of cAMP for H2-relaxin determined in the same test occasion multiplied by 100. Emax %=100×[cAMPtest cpd]/[cAMPH2-Rlx]

Row | EC50 | Emax | SMILES
1 | 1.5 nM | 99% | CCCCCCCCCCCCCCCC(=O)N[C@@H](CCC(=O)N[C@@H](CCC(=O)N[C@@H](CCC(=O)NCCCOCCOCCOCCCNC(=O)CCC(=O)NCCCOCCOCCOCCCNC(=O)CCC(=O)NCCCOCCOCCOCCCNC(=O)CCC(=O)NCCCC[C@H](NC(=O)CNC(=O)[C@H](CCC(=O)O)NC(=O)C(C)(C)NC(=O)C(C)(C)NC(=O)[C@@H](NC(=O)[C@H](CCCCNC(C)=O)NC(=O)[C@H](C)NC(=O)[C@H](CCCNC(=N)N)NC(=O)[C@@H](NC(=O)[C@H](CCCCN)NC(=O)[C@H](CCC(=O)O)NC(=O)[C@H](CCCNC(=N)N)NC(=O)CNC(=O)[C@H](CCC(=O)O)NC(=O)[C@H](CC(C)C)NC(C)=O)C(C)C)[C@@H](C)CC)C(=O)N[C@@H](CO)C(=O)N[C@H](C(=O)N[C@@H](Cc1c[nH]c2ccccc12)C(=O)N[C@@H](CO)C(=O)NC(C)(C)C(=O)N[C@@H](CCCNC(=N)N)C(=O)N[C@@H](CCCCN)C(=O)N[C@@H](CCCCNC(C)=O)C(N)=O)[C@@H](C)O)C(=O)O)C(=O)O)C(=O)O [compound 1] (Ac-LEGREKVRAK(Ac)I[Aib][Aib]EGK([Suc-X1])STWS[Aib]RKK(Ac)-NH2)
2 | 0.52 nM | 95% | CCCCCCCCCCCCCCCC(=O)N[C@@H](CCC(=O)N[C@@H](CCC(=O)N[C@@H](CCC(=O)NCCCOCCOCCOCCCNC(=O)CCC(=O)NCCCOCCOCCOCCCNC(=O)CCC(=O)NCCCOCCOCCOCCCNC(=O)CCC(=O)NCCCC[C@H](NC(=O)CNC(=O)[C@H](CCC(=O)O)NC(=O)C(C)(C)NC(=O)C(C)(C)NC(=O)[C@@H](NC(=O)[C@H](CCCCNC(C)=O)NC(=O)[C@H](C)NC(=O)[C@H](CCCNC(=N)N)NC(=O)[C@@H](NC(=O)[C@H](CCCCN)NC(=O)[C@H](CCC(=O)O)NC(=O)[C@H](CCCNC(=N)N)NC(=O)CNC(=O)[C@H](CCC(=O)O)NC(=O)[C@H](CC(C)C)NC(C)=O)C(C)C)[C@@H](C)CC)C(=O)N[C@@H](CO)C(=O)N[C@@H](CCCNC(=N)N)C(=O)N[C@@H](Cc1c[nH]c2ccccc12)C(=O)N[C@@H](CO)C(=O)NC(C)(C)C(=O)N[C@@H](CCCNC(=N)N)C(=O)N[C@@H](CCCCN)C(=O)N[C@@H](CCCCNC(C)=O)C(N)=O)C(=O)O)C(=O)O)C(=O)O [compound 64] (Ac-LEGREKVRAK(Ac)I[Aib][Aib]EGK([Suc-X1])SRWS[Aib]RKK(Ac)-NH2)
3 | 0.09 nM | 97% | CCCCCCCCCCCCCCCC(=O)N[C@@H](CCC(=O)N[C@@H](CCC(=O)N[C@@H](CCC(=O)NCCCOCCOCCOCCCNC(=O)CCC(=O)NCCCOCCOCCOCCCNC(=O)CCC(=O)NCCCOCCOCCOCCCNC(=O)CCC(=O)NCCCC[C@H](NC(=O)CNC(=O)[C@H](CCC(=O)O)NC(=O)C(C)(C)NC(=O)C(C)(C)NC(=O)[C@@H](NC(=O)[C@H](CCCCNC(C)=O)NC(=O)[C@H](C)NC(=O)[C@H](CCCNC(=N)N)NC(=O)[C@@H](NC(=O)[C@H](CCCNC(=N)N)NC(=O)[C@H](CCC(=O)O)NC(=O)[C@H](CCCNC(=N)N)NC(=O)CNC(=O)[C@H](CCC(=O)O)NC(=O)[C@H](CC(C)C)NC(C)=O)C(C)C)[C@@H](C)CC)C(=O)N[C@@H](CO)C(=O)N[C@H](C(=O)N[C@@H](Cc1ccc(F)cc1)C(=O)N[C@@H](CO)C(=O)NC(C)(C)C(=O)N[C@@H](CCCNC(=N)N)C(=O)N[C@@H](CCCNC(=N)N)C(=O)N[C@@H](CCCCNC(C)=O)C(N)=O)[C@@H](C)O)C(=O)O)C(=O)O)C(=O)O [compound 91] (Ac-LEGRERVRAK(Ac)I[Aib][Aib]EGK([Suc-X1])ST[Phe(4-F)]S[Aib]RRK(Ac)-NH2)

— patent US11725036B2, “Modified lipidated relaxin B chain peptides and their therapeutic use” (Sanofi, priority 2018, dated 2023)
